{"source": "paper PMC8262325", "about": "“Phosphatase inhibition by LB-100 enhances BMN-111 stimulation of bone growth” (JCI Insight, 2021)", "key": {"[1]": {"tested_on": "NPR2 guanylyl cyclase", "assay": "cGMP production in chondrocytes of intact tibia growth plates (cGi500 FRET sensor imaging)", "assay_type": "cell-based, mouse", "details": "for cGMP increase (CFP/YFP emission ratio from cGi500) on perfusion of agonist: no FGF", "method": "cGMP production in chondrocytes within intact growth plates was measured using tibias dissected from newborn mice (0- to 1-day-old mice) that globally expressed 1 or 2 copies of the cGi500 FRET sensor, as previously described ([27]). Tibias were dissected and cultured overnight on Millicell organotypic membranes (PICMORG50; MilliporeSigma) in BGJb medium (Thermo Fisher Scientific, catalog 12591-038) with 0.1% BSA (MP Biomedicals, catalog 103700), 100 units/mL of penicillin, and 100 μg/mL of streptomycin (Thermo Fisher Scientific, 15140-122). In preparation for imaging, each tibia was slit to remove the tissue overlying the growth plate. Where indicated, the tibia was incubated in LB-100, cantharidin, or control medium, followed by addition of FGF18 (0.5 μg/mL + 1 μg/mL heparin) or control medium containing heparin only. The tibia was then placed in a perfusion slide (ibidi USA, catalog 80186, special order with no adhesive), and the growth plate was imaged on the stage of a confocal microscope, as previously described ([27])."}, "[2]": {"target": "T1, recombinant PPP1CA (PPP1C) (Homo sapiens, UniProt P62136)", "T1 construct": "made in house; host or cells: E. coli BL-21", "assay": "Phosphatase activity inhibition assay (DiFMUP or [32P]-phosphohistone substrate)", "assay_type": "biochemical", "method": "The coding sequence of human PPP1CA was expressed as a maltose binding protein fusion in a BL-21 strain of E. coli and purified as previously described ([55]). Phosphohistone phosphatase assays were performed as previously described ([55], [56]). Briefly, LB-100, at the indicated concentrations, or vehicle control (H2O) was added to enzyme/buffer aliquots about 10 minutes prior to starting assays by the addition of [^32P]-phosphohistone substrate (to a final assay concentration of 300 nM incorporated phosphate). [^32P]-phosphohistone was prepared by the phosphorylation of bovine brain histone (MilliporeSigma, type-2AS) with cAMP-dependent protein kinase (PKA) in the presence of cAMP and [^32P]-ATP using established methods ([56], [57]). Phosphatase activity was measured by the quantitation of [^32P]-labeled orthophosphate liberated from the substrate using established protocols ([57]). 6,8-Difluoro-4-methylumbelliferyl phosphate–based (DiFMUP-based) inhibition assays were conducted as described ([56], [57]), in a 96-well format using DiFMUP (Invitrogen) (100 μM final assay concentration). IC50 values were calculated from a 10-point concentration/dose response curve by a 4-parameter logistic fit of the data, using 3–8 replicates per concentration."}, "[3]": {"tested_on": "PPP5C", "parameters": "method as in PMID 30679389", "details": "reported previously, read-out: Phosphatase IC50 mean ± SE, PPP5C, cited from earlier work"}, "[4]": {"tested_on": "Fgfr3^Y367C/+ femurs", "assay": "Ex vivo culture of fetal femurs, growth in length and area", "parameters": "species or system mouse", "details": "E16.5 Fgfr3^Y367C/+ femurs, 6-day culture; LB-100 10 μM, BMN-111 0.1 μM", "method": "Femurs from E16.5 embryos were cultured ex vivo, as described previously ([32], [47]). The left femur was cultured in the presence of LB-100 (10 μM), BMN-111 (0.1 μM), or LB-100 (10 μM) + BMN-111 (0.1 μM) and was compared with the vehicle-treated right femur. The bone’s length was measured on day 0 (D0) and D6. Images were captured with an Olympus SZX12 stereo microscope and quantified using cellSens software (Olympus). The results were expressed as the increase in femur length or area (D6 – D0) in the presence or absence of LB-100, BMN-111, or LB-100 + BMN-111. Bone length and area were measured as shown in Supplemental Figure 5. To generate the graphs shown in Figure 3, the length or 2-dimensional area on D0 was subtracted from the length or area on D6 to calculate the amount of growth. These measurements of growth in drug-treated bones were divided by the mean values from corresponding measurements of control (vehicle-treated) bones; the graphs show the ratio of treated/control growth."}, "[5]": {"tested_on": "PPP2C", "parameters": "method as in PMID 30679389", "details": "reported previously, read-out: Phosphatase IC50 mean ± SE, PPP2C, cited from earlier work"}, "[6]": {"tested_on": "NPR2", "assay": "NPR2 phosphorylation in primary rib chondrocyte cultures (Phos-tag gel electrophoresis, Western blot)", "assay_type": "cell-based, mouse", "details": "for NPR2 dephosphorylation in response to FGF: then FGF18 0.5 μg/mL 10 minutes", "method": "Rib cages were dissected from newborn mice (0–2 days old) and trimmed to remove the skin, spinal cord, and soft tissue around the sternum and ribs. Nonchondrocyte tissue was digested away by incubating the rib cages in 2 mg/mL pronase (Roche, catalog 10165921001) in PBS for 1 hour in a shaking water bath at 37°C and was then incubated in 3 mg/mL collagenase D (Roche, catalog 11088866001) in medium for 1 hour. After washing, the rib cages were transferred to a dish with fresh collagenase D and incubated for 5–6 hours, with trituration at 2 hours, to release the chondrocytes. The isolated cells were passed through a 40 μm nylon cell strainer (Corning, catalog 431750), resuspended in DMEM/F12 medium (Thermo Fisher Scientific, catalog 11320-033) with 10% FBS (Thermo Fisher Scientific, catalog 10082-139), 100 units/mL of penicillin, and 100 μg/mL of streptomycin. The cells were plated in 35 mm tissue culture dishes, at a density corresponding to 1 newborn mouse per dish, and cultured for 3 days, at which point the cells were approximately 75%–90% confluent. They were then washed with PBS and incubated in serum-free medium for 18 hours. The cells were then incubated in LB-100 (10 μM), or control medium, followed by addition of FGF18 (0.5 μg/mL + 1 μg/mL heparin) or control medium containing heparin only.\nAt end of the incubation period, dishes were washed in PBS, and cells were lysed in 250 μL of 1% SDS containing 10 mM sodium fluoride, 1 μM microcystin-LR (Cayman Chemical, catalog 10007188), and protease inhibitor cocktail (Roche, catalog 04 693 159 001). Protein content was determined by a BCA assay (Pierce, catalog 23225). The protein yield per newborn mouse was approximately 200–300 μg.\nProteins were separated in a Phos-tag–containing gel, as previously described ([58]), except that chondrocyte lysates (30 μg protein) were used without immunoprecipitation. Phos-tag and protein size markers were obtained from Fujifilm Wako Pure Chemical (catalogs AAL-107 and 230-02461, respectively). For these studies, we used mice with HA-tagged NPR2 ([43]), and blots were probed with an antibody against the HA tag (Cell Signaling Technology, catalog 2367, 1:1000 dilution). The specificity of this antibody is validated in Supplemental Figure 3. Note that molecular weight markers are only approximate for Phos-tag gels."}, "[7]": {"tested_on": "NPR2 guanylyl cyclase", "parameters": "method as in PMID 29199951", "details": "100 μM; cited from earlier work"}, "[8]": {"tested_on": "growth plate chondrocytes of Fgfr3^Y367C/+ femurs", "assay": "Histology of growth plates of ex vivo cultured femurs (HES, COLX immunostaining)", "parameters": "species or system mouse", "details": "6-day culture, LB-100 10 μM, BMN-111 0.1 μM", "text": "After a 6-day culture period, fetal femur (E16.5) explants were fixed in 4% paraformaldehyde, decalcified with EDTA (0.4M), and embedded in paraffin. Serial 5 μm sections were stained with hematoxylin‑eosin‑safran (HES) reagent, using standard protocols. For immunohistochemical assessment, sections were labeled with the following antibodies and a Dako Envision Kit: anti-COLX (BIOCYC, catalog N.2031501005; 1:50 dilution), and anti–phosphorylated ERK1‑2 ([…]) (Cell Signaling Technology, catalog 4370; 1:100 dilution). Images were captured with an Olympus PD70-IX2-UCB microscope and quantified using cellSens software.\nMean areas of individual hypertrophic chondrocytes were measured from COLX-labeled sections, within a 166 μm wide × 76 μm high box positioned 50 μm from mineralization front (Supplemental Figure 6). The measurements were made manually using Fiji software and the freehand selection tool. […] We measured the total area occupied by chondrocytes within the whole growth plate and the area occupied by COLX^+ chondrocytes. The area for proliferating chondrocytes was calculated by subtracting the COLX^+ area from the whole growth plate area."}, "[9]": {"tested_on": "children with ACH", "parameters": "method as in PMID 31269546, PMID 32891212", "details": "children 5–14 years of age with ACH, up to 42 months, phase 2 and 3 data; cited from earlier work"}, "[10]": {"tested_on": "Fgfr3^Y367C/+ mice", "parameters": "method as in PMID 23200862", "details": "cited from earlier work"}, "[11]": {"details": "substrate [32P]-labeled phosphohistone"}}, "note": "Where two headings read alike, the source gives them in different places. Bridges are numbered along the chain shown (N, C = ends).", "data": [{"compound": "CCN(CC)/[N+]([O-])=N/O.CCNCC", "note": "[DEA/NO]", "values": [{"measurement": "cGMP increase (CFP/YFP emission ratio from cGi500) on perfusion of agonist", "setting": "[1]; 10 μM perfused across growth plate of newborn mouse tibia", "value": "did not increase cGMP"}]}, {"compound": "CN1CCN(C(=O)C2C3CCC(O3)C2C(=O)O)CC1", "note": "(stereo not shown) [LB-100, 3-[4-methylpiperazine-1-carbonyl]-7-oxabicyclo[2.2.1]heptane-2-carboxylic acid]", "values": [{"measurement": "IC50", "setting": "[2]; 2 established assays with different substrates, read-out: IC50 for inhibition of PPP1C", "value": "< 2000", "unit": "nM"}, {"measurement": "IC50", "setting": "[2]; substrate DiFMUP, read-out: Phosphatase IC50 mean ± SE, PPP1C", "value": "1800 ± 21", "unit": "nM"}, {"measurement": "IC50", "setting": "[2]; substrate [32P]-labeled phosphohistone, read-out: Phosphatase IC50 mean ± SE, PPP1C", "value": "1680 ± 130", "unit": "nM"}, {"measurement": "IC50", "setting": "[3]; substrate DiFMUP", "value": "1820 ± 93", "unit": "nM"}, {"measurement": "IC50", "setting": "[3]; [11]", "value": "4900 ± 290", "unit": "nM"}, {"measurement": "Increase in bone length, ratio treated/vehicle-treated control", "setting": "[4]", "value": 1.30}, {"measurement": "Increase of total bone and cartilage area, growth ratio treated/control", "setting": "[4]", "value": 1.40}, {"measurement": "CNP-induced cGMP increase in FGF-treated tibias", "setting": "[1]; 1 μM preincubation 60 minutes before FGF18 (80 minutes)", "value": "no effect"}, {"measurement": "Effectiveness in counteracting inactivation of NPR2 by FGF, compared with cantharidin", "setting": "[1]; 5 μM LB-100 equivalent to 10 μM cantharidin", "value": "more effective than cantharidin"}, {"measurement": "CNP-induced cGMP increase in FGF-treated tibias", "setting": "[1]; 5 μM preincubation 60 minutes before FGF18 (80 minutes)", "value": "enhanced"}, {"measurement": "CNP-induced cGMP increase in FGF-treated tibias", "setting": "[1]; 10 μM preincubation 60 minutes before FGF18 (80 minutes)", "value": "enhanced"}, {"measurement": "Chondrocyte morphology in the live growth plate", "setting": "[1]; 10 μM, 2-hour incubation", "value": "no visible change in chondrocyte morphology"}, {"measurement": "IC50", "setting": "[5]; substrate DiFMUP", "value": "390 ± 13", "unit": "nM"}, {"measurement": "IC50", "setting": "[5]; [11]", "value": "640 ± 37", "unit": "nM"}, {"measurement": "NPR2 dephosphorylation in response to FGF", "setting": "[6]; 10 μM preincubation 1 hour with BMN-111 0.1 μM present", "value": "counteracts the FGF-induced dephosphorylation"}, {"measurement": "NPR2 dephosphorylation in response to FGF", "setting": "[6]; 10 μM preincubation 1 hour", "value": "only partial"}]}, {"compound": "C[C@@]12C(=O)OC(=O)[C@]1(C)[C@H]1CC[C@@H]2O1", "note": "[cantharidin, Cantharidin]", "values": [{"measurement": "Effect on inactivation of NPR2 by FGF in growth plate chondrocytes", "setting": "[7]", "value": "inhibits the inactivation of NPR2"}]}, {"compound": "(Cyc[23,39])H2N-PGQEHPNARKYKGANKKGLSKGCFGLKLDRIGSMSGLGC-OH (H-PGQEHPNARKYKGANKKGLSKGCFGLKLDRIGSMSGLGC-OH; disulfide 23-39) [BMN-111, protease-resistant CNP analog, NPR2 agonist]", "values": [{"measurement": "Increase in bone length, ratio treated/vehicle-treated control", "setting": "[4]", "value": 1.78}, {"measurement": "Increase of total bone and cartilage area, growth ratio treated/control", "setting": "[4]", "value": 1.51}, {"measurement": "Size of Fgfr3^Y367C/+ hypertrophic chondrocytes", "setting": "[8]; proximal growth plate", "value": "increased the size"}, {"measurement": "Increase of total proliferative growth plate area of the femur over vehicle", "setting": "[8]; proximal plus distal growth plates", "value": 20, "unit": "%"}, {"measurement": "Annualized growth velocity", "setting": "[9]", "value": "sustained increase in annualized growth velocity"}, {"measurement": "Bone growth in mouse model of ACH", "setting": "[10]", "value": "increases bone growth"}, {"measurement": "NPR2 phosphorylation", "setting": "[6]; 0.1 μM for 1 hour, independently of FGF treatment", "value": "some reduction in NPR2 phosphorylation"}]}, {"compound": "ANP: A-type natriuretic peptide, which activates the NPR1 guanylyl cyclase", "values": [{"measurement": "cGMP increase (CFP/YFP emission ratio from cGi500) on perfusion of agonist", "setting": "[1]; 0.1 μM agonist perfused across growth plate of newborn mouse tibia", "value": "did not increase cGMP"}]}, {"compound": "FGF18: fibroblast growth factor 18 used to activate FGF receptor", "values": [{"measurement": "Effect on cGMP increase in response to CNP perfusion", "setting": "[1]; pretreatment 0.5 μg/mL FGF18 + 1 μg/mL heparin for 80 minutes, 0.1 μM CNP", "value": "suppressed the cGMP increase"}, {"measurement": "NPR2 phosphorylation", "setting": "[6]; FGF18 0.5 μg/mL for 10 minutes", "value": "decrease in NPR2 phosphorylation"}]}]}
